Structures can show the parent of a compound that is named as a salt.

The subject of the first experiment is Phakopsora pachyrhizi. In words: Phakopsora pachyrhizi test in soybean (greenhouse, preventive activity, disease severity rating). The experiment is classed as in vivo. Conditions: preventive spray on soybean, compared to the untreated check. How it is done: To test the preventive activity of compounds, healthy young soybean plants, raised in the greenhouse, were sprayed with the active compound solution at the stated application rates inside spray cabinets using hallowcone nozzles. One day after treatment, the plants were inoculated with a suspension containing 2.1×10^6 Phakopsora pachyrhizi spores. The inoculated plants were then kept in the greenhouse chamber at 25° C. temperature and 90% relative humidity for disease expression. A visual assessment of the compound's performance was carried out by rating the disease severity (0-100% scale) on treated plants on 3, 7, 10 and 15 days after application. Efficacy (% control) of the compounds was calculated by comparing the disease rating in the treatment with the one of the untreated control. The treated plants were also assessed for plant compatibility by recording symptoms like necrosis, chlorosis and stunting.
Regarding `O=S(=O)(c1ccc(Br)cc1)N1CC[C@H](Oc2ccc(-c3noc(C(F)(F)F)n3)cc2)C1` [Compound 116, (S)-3-(4-((1-((4-bromophenyl)sulfonyl)pyrrolidin-3-yl)oxy)phenyl)-5-(trifluoromethyl)-1,2,4-oxadiazole], the pest or weed control (usually the degree to which the test organism was suppressed or injured, in per cent) at 500 ppm was greater than 70%.
Turning to `O=S(=O)(c1ccc(Cl)cc1Cl)N1CC[C@H](Oc2ccc(-c3noc(C(F)(F)F)n3)cc2)C1` [Compound 120, (S)-3-(4-((1-((2,4-dichlorophenyl)sulfonyl)pyrrolidin-3-yl)oxy)phenyl)-5-(trifluoromethyl)-1,2,4-oxadiazole], the pest or weed control at 500 ppm is greater than 70%.
Same read-out and setting: the value for `N#Cc1ccc(S(=O)(=O)N2CC[C@H](Oc3ccc(-c4noc(C(F)(F)F)n4)cc3)C2)cc1` [Compound 121, (S)-4-((3-(4-(5-(trifluoromethyl)-1,2,4-oxadiazol-3-yl)phenoxy)pyrrolidin-1-yl)sulfonyl)benzonitrile] was greater than 70%; that for `O=S(=O)(c1cccc(Cl)c1)N1CC[C@H](Oc2ccc(-c3noc(C(F)(F)F)n3)cc2)C1` [Compound 122, (S)-3-(4-((1-((3-chlorophenyl)sulfonyl)pyrrolidin-3-yl)oxy)phenyl)-5-(trifluoromethyl)-1,2,4-oxadiazole] was greater than 70%.
The same measure, in the same setting: the value for `CN(c1ccc(-c2noc(C(F)(F)F)n2)cc1)C1CN(C(=O)c2ccc(F)cc2)C1` [Compound 124, (4-fluorophenyl)(3-(methyl(4-(5-(trifluoromethyl)-1,2,4-oxadiazol-3-yl)phenyl)amino)azetidin-1-yl)methanone] was greater than 70%.
On the same count and under the same terms, the value for `CC(C)(C)OC(=O)N1CCC(Oc2cccc(-c3noc(C(F)(F)F)n3)c2)C1` (stereo not shown) [Compound 127, tert-butyl 3-(3-(5-(trifluoromethyl)-1,2,4-oxadiazol-3-yl)phenoxy)pyrrolidine-1-carboxylate] was greater than 70%; that for `FC(F)(F)c1nc(-c2cccc(OC3CCNC3)c2)no1` (stereo not shown) [Compound 128, 3-(3-(pyrrolidin-3-yloxy)phenyl)-5-(trifluoromethyl)-1,2,4-oxadiazole hydrochloride] was greater than 70%; that for `CN(c1ccc(-c2noc(C(F)(F)F)n2)cc1)C1CN(C(=O)C(C)(C)C)C1` [Compound 129, 2,2-dimethyl-1-(3-(methyl(4-(5-(trifluoromethyl)-1,2,4-oxadiazol-3-yl)phenyl)amino)azetidin-1-yl)propan-1-one] was greater than 70%.
As for `CC(C)(C)C(=O)N1CCC(Oc2cccc(-c3noc(C(F)(F)F)n3)c2)C1` (stereo not shown) [Compound 130, 2,2-dimethyl-1-(3-(3-(5-(trifluoromethyl)-1,2,4-oxadiazol-3-yl)phenoxy)pyrrolidin-1-yl)propan-1-one], the pest or weed control at 500 ppm was greater than 70%.
The compound `O=C(c1ccc(F)cc1)N1CCC(Oc2ccc(-c3noc(C(F)(F)F)n3)cc2)CC1` [Compound 142, (4-fluorophenyl)(4-(4-(5-(trifluoromethyl)-1,2,4-oxadiazol-3-yl)phenoxy)piperidin-1-yl)methanone] returned a pest or weed control at 500 ppm greater than 70%.
`O=C(c1ccc(C(F)(F)F)cc1)N1CCC(Oc2cccc(-c3noc(C(F)(F)F)n3)c2)C1` (stereo not shown) [Compound 143, (3-(3-(5-(trifluoromethyl)-1,2,4-oxadiazol-3-yl)phenoxy)pyrrolidin-1-yl)(4-(trifluoromethyl)phenyl)methanone] returned a pest or weed control at 500 ppm greater than 70%.
On the same count and under the same terms, under `O=C(c1cccc(Cl)c1)N1CCC(Oc2cccc(-c3noc(C(F)(F)F)n3)c2)C1` (stereo not shown) [Compound 144, (3-chlorophenyl)(3-(3-(5-(trifluoromethyl)-1,2,4-oxadiazol-3-yl)phenoxy)pyrrolidin-1-yl)methanone] stands greater than 70%; under `O=C(Cc1ccc(Cl)cc1)N1CCC(Oc2ccc(-c3noc(C(F)(F)F)n3)cc2)CC1` [Compound 145, 2-(4-chlorophenyl)-1-(4-(4-(5-(trifluoromethyl)-1,2,4-oxadiazol-3-yl)phenoxy)piperidin-1-yl)ethan-1-one], greater than 70%.
The same measure, in the same setting: under `COc1ccc(C(=O)N2CCC(Oc3cccc(-c4noc(C(F)(F)F)n4)c3)C2)cc1` (stereo not shown) [Compound 146, (4-methoxyphenyl)(3-(3-(5-(trifluoromethyl)-1,2,4-oxadiazol-3-yl)phenoxy)pyrrolidin-1-yl)methanone] stands greater than 70%; under `Cc1ccsc1S(=O)(=O)N1CC[C@H](Oc2ccc(-c3noc(C(F)(F)F)n3)cc2)C1` [Compound 147, (S)-3-(4-((1-((3-methylthiophen-2-yl)sulfonyl)pyrrolidin-3-yl)oxy)phenyl)-5-(trifluoromethyl)-1,2,4-oxadiazole], greater than 70%.
The same measure, in the same setting: the value for `Cn1cnc(S(=O)(=O)N2CC[C@H](Oc3ccc(-c4noc(C(F)(F)F)n4)cc3)C2)c1` [Compound 148, (S)-3-(4-((1-((1-methyl-1H-imidazol-4-yl)sulfonyl)pyrrolidin-3-yl)oxy)phenyl)-5-(trifluoromethyl)-1,2,4-oxadiazole] was greater than 70%; that for `O=S(=O)(c1cccc(F)c1)N1CC[C@H](Oc2ccc(-c3noc(C(F)(F)F)n3)cn2)C1` [Compound 149, (S)-3-(6-((1-((3-fluorophenyl)sulfonyl)pyrrolidin-3-yl)oxy)pyridin-3-yl)-5-(trifluoromethyl)-1,2,4-oxadiazole] was greater than 70%; that for `N#Cc1ccc(S(=O)(=O)N2CC[C@H](Oc3ccc(-c4noc(C(F)(F)F)n4)cn3)C2)cc1` [Compound 150, (S)-4-((3-((5-(5-(trifluoromethyl)-1,2,4-oxadiazol-3-yl)pyridin-2-yl)oxy)pyrrolidin-1-yl)sulfonyl)benzonitrile] was greater than 70%.
On to `O=S(=O)(c1cccc(C(F)(F)F)c1)N1CC[C@H](Oc2ccc(-c3noc(C(F)(F)F)n3)cn2)C1` [Compound 151, (S)-5-(trifluoromethyl)-3-(6-((1-((3-(trifluoromethyl)phenyl)sulfonyl)pyrrolidin-3-yl)oxy)pyridin-3-yl)-1,2,4-oxadiazole], for which the pest or weed control at 500 ppm was greater than 70%.
Same read-out and setting: the value for `O=S(=O)(c1ccccc1F)N1CC[C@H](Oc2ccc(-c3noc(C(F)(F)F)n3)cn2)C1` [Compound 152, (S)-3-(6-((1-((2-fluorophenyl)sulfonyl)pyrrolidin-3-yl)oxy)pyridin-3-yl)-5-(trifluoromethyl)-1,2,4-oxadiazole] was greater than 70%.
`O=S(=O)(c1cccnc1)N1CC[C@H](Oc2ccc(-c3noc(C(F)(F)F)n3)cn2)C1` [Compound 153, (S)-3-(6-((1-(pyridin-3-ylsulfonyl)pyrrolidin-3-yl)oxy)pyridin-3-yl)-5-(trifluoromethyl)-1,2,4-oxadiazole] registered a pest or weed control at 500 ppm greater than 70%.
Same read-out and setting: under `CC(C)S(=O)(=O)N1CC[C@H](Oc2ccc(-c3noc(C(F)(F)F)n3)cn2)C1` [Compound 155, (S)-3-(6-((1-(isopropylsulfonyl)pyrrolidin-3-yl)oxy)pyridin-3-yl)-5-(trifluoromethyl)-1,2,4-oxadiazole] stands greater than 70%.
`CC(C)(C)OC(=O)N1CC[C@@H](Sc2ccc(-c3noc(C(F)(F)F)n3)cc2)C1` [Compound 157, tert-butyl (R)-3-((4-(5-(trifluoromethyl)-1,2,4-oxadiazol-3-yl)phenyl)thio)pyrrolidine-1-carboxylate] had a pest or weed control at 500 ppm greater than 70%.

The test system of another experiment is Pyricularia oryzae. In words: microbe, parasite or virus in culture. The experiment is classed as cell-based. The note with it: 168 h, read-out: control.
Regarding `CCS(=O)(=O)N1CC[C@H](Oc2ccc(-c3noc(C(F)(F)F)n3)cc2)C1` [Compound 40, (S)-3-(4-((1-(ethylsulfonyl)pyrrolidin-3-yl)oxy)phenyl)-5-(trifluoromethyl)-1,2,4-oxadiazole], the inhibition of growth at 300 ppm was greater than 70%.
Same read-out and setting: the value for `O=C(c1ccncc1)N1CC[C@@H](Oc2ccc(-c3noc(C(F)(F)F)n3)cn2)C1` [Compound 78, (R)-pyridin-4-yl(3-((5-(5-(trifluoromethyl)-1,2,4-oxadiazol-3-yl)pyridin-2-yl)oxy)pyrrolidin-1-yl)methanone] was greater than 70%; that for `CC(=O)N1CC(N(c2ccc(-c3noc(C(F)(F)F)n3)cc2)c2ccc(-c3noc(C(F)(F)F)n3)cc2)C1` [Compound 90, 1-(3-(bis(4-(5-(trifluoromethyl)-1,2,4-oxadiazol-3-yl)phenyl)amino)azetidin-1-yl)ethan-1-one] was greater than 70%.
Still for that read-out and setting: the value for `O=C(c1ccccc1F)N1CCC(Oc2ccc(-c3noc(C(F)(F)F)n3)cc2)CC1` [Compound 92, (2-fluorophenyl)(4-(4-(5-(trifluoromethyl)-1,2,4-oxadiazol-3-yl)phenoxy)piperidin-1-yl)methanone] was greater than 70%.
The same measure, in the same setting: the value for `Cc1ccc(C(=O)N2CCC(Oc3cccc(-c4noc(C(F)(F)F)n4)c3)C2)cc1` (stereo not shown) [Compound 135, p-tolyl(3-(3-(5-(trifluoromethyl)-1,2,4-oxadiazol-3-yl)phenoxy)pyrrolidin-1-yl)methanone] was greater than 70%; that for `CN(c1ccc(-c2noc(C(F)(F)F)n2)cc1)C1CCN(C(=O)OC(C)(C)C)C1` (stereo not shown) [Compound 167, tert-butyl 3-(methyl(4-(5-(trifluoromethyl)-1,2,4-oxadiazol-3-yl)phenyl)amino)pyrrolidine-1-carboxylate] was greater than 70%; that for `Cc1cccc(C(=O)N2CC[C@@H](Sc3ccc(-c4noc(C(F)(F)F)n4)cc3)C2)c1` [Compound 172, (R)-m-tolyl(3-((4-(5-(trifluoromethyl)-1,2,4-oxadiazol-3-yl)phenyl)thio)pyrrolidin-1-yl)methanone] was greater than 70%.
Take `O=C(c1ccccc1)N1CC[C@@H](Sc2ccc(-c3noc(C(F)(F)F)n3)cc2)C1` [Compound 177, (R)-phenyl(3-((4-(5-(trifluoromethyl)-1,2,4-oxadiazol-3-yl)phenyl)thio)pyrrolidin-1-yl)methanone]: the inhibition of growth at 300 ppm is greater than 70%.

Values taken from US20210392895A1, “NOVEL OXADIAZOLES” (PI INDUSTRIES LIMITED, priority 2018, published 2021).
